Measurements published in US4462941A, “Dynorphin amide analogs” (The Regents of the University of California, priority 1982, dated 1984).
Where no end group is shown, it is not given here.

Assays:
[1] = system: morphine tolerant animals; assay: Tail-flick analgesia, morphine s.c. with or without peptide i.c.v., morphine tolerant animals; format: in vivo; details: tolerant mice
Procedure: (§1) Male simonesen ICR mice (Gilroy, CA) weighing between 20-25 g were housed for at least one day prior to experimentation, and used within 5 days. Each mouse was used only once.
(§2) Analgesia was measured by the tail-flick method of D'Amour and Smith, J. Pharmac. Exp. Ther., 72, pp. 74-79 (1941), incorporated herein by reference, as modified by Tulunay and Takemori, J. Pharmac. Exp. Ther., 190, pp. 395-400 (1974), incorporated herein by reference. […] Nonresponding animals were removed from the heat stimulus when reaction times exceeded 10 sec. to avoid the tail damage.
(§3) Drugs were injected 30 min. prior to testing, unless otherwise indicated.
The animals were separated into two groups. […] Exp. Ther., 167, pp. 1-8 (1969), incorporated herein by reference.
(§4) The ED50 values, their 95% confidence limits and significance of the potency ratio between two ED50 values were determined by the method of Litchfield and Wilcoxon, J. Pharmac. Exp. Ther., 96: 99-113 (1949), incorporated herein by reference.

[2] = system: mouse vas deferens; details: read-out: IC50 inhibiting the twitch of the mouse vas deferens
[3] = compared with dynorphin(1-13)
[4] = system: mice; assay: Analgesic activity of the peptide by itself (mouse tail-flick)
Procedure: as §2, §3

[5] = system: morphine tolerant animals; assay: Tail-flick analgesia, β-endorphin i.c.v. with or without dynorphin(1-13) i.c.v., morphine tolerant animals; format: in vivo; details: tolerant mice
From the text: as §1
The animals were separated into two groups. The one group was morphine tolerant (e.g., addicted); the other group was naive (e.g., not addicted). […] Exp. Ther., 167, pp. 1-8 (1969), incorporated herein by reference.
as §4

With `CN1CC[C@]23c4c5ccc(O)c4O[C@H]2[C@@H](O)C=C[C@H]3[C@H]1C5.O=S(=O)(O)O` [Morphine, morphine sulfate] the “Analgesia (%)” value ([1]; morphine 60 mg/kg s.c. alone) was 40% and the “Analgesia (%)” value ([1]; morphine 80 mg/kg s.c. alone) was 90%.

In the case of `CC[C@H](C)[C@H](NC(=O)[C@H](CCCNC(=N)N)NC(=O)[C@H](CCCNC(=N)N)NC(=O)[C@H](CC(C)C)NC(=O)[C@H](Cc1ccccc1)NC(=O)CNC(=O)CNC(=O)[C@@H](N)Cc1ccc(O)cc1)C(=O)N[C@@H](CCCNC(=N)N)C(=O)N1CCC[C@H]1C(=O)N[C@@H](CCCCN)C(=O)N[C@@H](CC(C)C)C(=O)N[C@@H](CCCCN)C(=O)O` [dynorphin(1-13)], the IC50 [2] is reported as 3.9 nM.

With “YGGFLRRIRP-NH2 [dynorphin(1-10) amide, Dynorphin(1-10)-NH2]” the “rate of metabolism by the host” value [3] was “less quickly metabolized”, the IC50 [2] was 0.24 nM and the “behavior at huge doses” value [4] was “tends to produce convulsions”.

For β-endorphin, the “Analgesia (%)” value ([5]; β-endorphin 1 μg/mouse i.c.v. alone) was 10%, the “Analgesia (%)” value ([5]; β-endorphin 2 μg/mouse i.c.v. alone) was 40% and the “Analgesia (%)” value ([5]; β-endorphin 6 μg/mouse i.c.v. alone) was 100%. For the same compound, the “ED50 of β-endorphin” value ([5]; β-endorphin i.c.v. alone) was “about 2.25 μg/mouse”.
